{
  "source": "ChEMBL document CHEMBL2073970",
  "about": "“Expression cloning and functional characterization of the kidney cortex high-affinity proton-coupled peptide transporter” (Proc Natl Acad Sci U S A, 1996)",
  "biological_target": "T1, Solute carrier family 15 member 2 (Rattus norvegicus) (UniProt Q63424)",
  "T1 sequence (whole entry)": "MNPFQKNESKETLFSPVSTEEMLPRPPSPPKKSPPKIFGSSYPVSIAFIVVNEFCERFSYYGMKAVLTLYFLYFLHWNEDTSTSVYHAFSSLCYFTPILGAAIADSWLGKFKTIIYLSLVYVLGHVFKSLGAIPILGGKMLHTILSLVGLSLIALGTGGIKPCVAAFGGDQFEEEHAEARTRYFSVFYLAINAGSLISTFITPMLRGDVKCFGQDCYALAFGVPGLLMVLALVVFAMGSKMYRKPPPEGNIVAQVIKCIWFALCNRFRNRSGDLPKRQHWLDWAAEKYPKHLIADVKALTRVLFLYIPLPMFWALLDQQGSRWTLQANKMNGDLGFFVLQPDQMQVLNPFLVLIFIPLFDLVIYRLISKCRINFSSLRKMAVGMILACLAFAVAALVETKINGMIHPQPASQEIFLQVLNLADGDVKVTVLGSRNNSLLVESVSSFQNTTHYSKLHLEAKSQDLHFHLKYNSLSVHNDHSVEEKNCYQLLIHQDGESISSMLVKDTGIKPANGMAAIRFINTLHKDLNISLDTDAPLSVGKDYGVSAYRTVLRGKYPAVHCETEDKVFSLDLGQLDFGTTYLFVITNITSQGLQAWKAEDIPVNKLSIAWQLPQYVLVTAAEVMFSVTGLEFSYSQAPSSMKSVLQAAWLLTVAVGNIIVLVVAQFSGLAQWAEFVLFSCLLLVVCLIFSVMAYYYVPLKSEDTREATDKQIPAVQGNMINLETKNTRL",
  "experiment": "TP_TRANSPORTER: inhibition of Cefadroxil uptake (Cefadroxil: 25 uM, Loracarbef: 5000uM) in Xenopus laevis oocytes",
  "assay_type": "functional, cell-based",
  "settings": "Oocyte",
  "data": [
    {"molecule": "N[C@@H](C(=O)N[C@@H]1C(=O)N2C(C(=O)O)=C(Cl)CC[C@H]12)c1ccccc1", "values": [
      {"measurement": "Activity", "result": "inhibitor [15% (at a rough estimate) of control]"}
    ]}
  ]
}
